From patent US4006225A, “Method of using reduction products of everninomicins as antibacterial agents and pharmaceutical compositions useful therefor” (Schering Corporation, priority 1975, dated 1977)
≈ marks a conversion by molar mass, not a printed value. Where “and” joins values, the source holds several entries; their conditions need not be identical. Equal values may be shown once. Entries after “also recorded” stand apart in the source; their conditions may differ. Where a name gives a salt, the structure may show the parent alone. Read-outs that look alike come from different tables or passages of the source. Blank lines part the entries; values can stand above or below the compound they belong to.

Key:
[1] = peak serum levels in dogs; type: in vivo; settings: dog, 10 mg/kg I.M.
Procedure: (§1) In determining peak serum levels, the animal tested (e.g. dog or rat) is given a single dose of 10 or 25 mg/kg of everninomicin D or derivative thereof of this invention, blood samples are taken periodically, and the serum thereof is assayed for anti-bacterial activity by an agar-diffusion-assay as described by Weinstein et al., Antimicrobial Agents and Chemotherapy, p 24 (1964).

[2] = pKa of purified everninomicin D; type: physicochemical
[3] = acute toxicity (LD50) in mice; settings: mouse, in vivo; for LD50 in mice I.P. (mg/kg): ip; for LD50 in mice I.V. (mg/kg): iv; for LD50 in mice S.C. (mg/kg): sc
Procedure: The acute toxicity (LD50) of the antibacterial substances in either aqueous suspensions or aqueous solutions is measured in milligrams per kilogram in standard manner using male CF-1 mice weighing 20 grams.

[4] = test system: Staphylococcus and Streptococcus; experiment: in vitro susceptibility of gram-positive microorganisms, standard tube dilution (MIC); type: cell-based; settings: for MIC: Staphylococcus and Streptococcus, 24 hours at 37° C, Penassay broth; for antibacterial activity compared with everninomicin D: gram-positive bacteria
Procedure: The comparative in vitro activities of nitrosoeverninomicin D and the sodium salt thereof, hydroxylaminoeverninomicin D and the sodium salt and N-methylglucamine salt thereof, hydroxylaminoeverninomicin D benzyl nitrone N-methylglucamine salt, hydroxylaminoeverninomicin B and hydroxylaminoeverninomicin C are set forth in Table 1 below. The susceptibility of the test gram-positive microorganisms to the antibacterials was determined by standard tube dilution methods. In each instance 10^^-5 dilutions of 24-hour broth cultures were employed as inoculum with the endpoints being taken after incubation for 24 hours at 37° C in a Difco […] broth medium (Difco Labs., Detroit, Michigan). In the tables, the activity (or assay value) of each respective antibacterial agent is expressed in units per milliliter or micrograms per milliliter.

[5] = peak serum levels in rats; type: in vivo; settings: rat, 25 mg/kg S.C.
Procedure: as §1

[6] = test system: N.gonorrhea and N.meningitidis; experiment: in vitro susceptibility of gram-negative microorganisms, plate dilution in Thayer-Martin medium (MIC); type: cell-based, Neisseria gonorrhea and Neisseria meningitidis; settings: for MIC: N.gonorrhea and N.meningitidis, Thayer-Martin medium
Procedure: The susceptibility of the gram-negative microorganisms to the antibacterials was determined by plate dilution methods in Thayer-Martin medium by the known Thayer-Martin procedure.

[7] = absorption, serum levels and excretion after injection compared with everninomicin D; type: in vivo; settings: by injection
Procedure: as §1

[8] = test system: S. aureus (A.T.C.C. 6538p); experiment: microbiological assay (bioassay), cup-type agar diffusion; type: cell-based
Procedure: The microbiological assay (also called the bioassay) is effected microbiologically by a standard cup-type agar diffusion assay technique using S. aureus (A.T.C.C. 6538p) as test organism. A reference curve is prepared by plotting the dosage-response of the antibacterial agent in ethanol diluted by phosphate buffer at pH7 upon a medium of the following composition which has been inoculated with the test organism (i.e. S. aureus): A suspension of the assay organism (S. aureus A.T.C.C. 6538p) is standardized to produce 20% transmission at 660 mμ in a colorimeter. The potency of the sample is determined from the reference curve and expressed in terms of units per milligram (a unit being that amount of test substance required to produce a 15 mm zone of inhibition with a steel cylinder of 6.5 mm outside diameter).

Compound: COCC1OC(OC2OCC3OC4(OCC(O)(C(C)OC)C5OCOC54)OC3C2OC)C(OC)C(O)C1OC1OC(C)C(OC)C(OC2CC3(C)OC4(CC(O)C(OC5CC(OC6CC(C)([N+](=O)[O-])C(OC)C(C)O6)C(OC(=O)c6c(C)c(Cl)c(O)c(Cl)c6OC)C(C)O5)C(C)O4)OC3C(C)O2)C1O (stereo not drawn) [Everninomicin D, everninomicin D, reference compound]
- Peak serum levels in dogs [1]: 2 to 3 µg/mL
- pKa [2]: 7.2
- LD50 in mice I.P. (mg/kg) [3]: > 3800
- LD50 in mice I.V. (mg/kg) [3]: 125
- LD50 in mice Oral (mg/kg) [3]: > 3800
- LD50 in mice S.C. (mg/kg) [3]: > 3800
- MIC ([4]; 24 h, read-out: MIC): 0.03 to 0.3 mg/L (≈ 0.0195 to 0.195 µM)
- Peak serum levels in rats [5]: 10 to 12 µg/mL

- MIC ([4]; 24 h, read-out: MIC): 0.1 to 1 mg/L (≈ 0.065 to 0.65 µM)
Compound: COCC1OC(OC2OCC3OC4(OCC(O)(C(C)OC)C5OCOC54)OC3C2OC)C(OC)C(O)C1OC1OC(C)C(OC)C(OC2OC(C)C3OC4(CC(O)C(OC5CC(OC6CC(C)(NO)C(OC)C(C)O6)C(OC(=O)c6c(C)c(Cl)c(O)c(Cl)c6OC)C(C)O5)C(C)O4)OC3(C)C2O)C1O (stereo not drawn) [Hydroxylaminoeverninomicin B, hydroxylaminoeverninomicin B]

- Cmax ([1]; serum, im): 15 µg/mL
- MIC ([4]; 24 h, read-out: MIC): 0.1 to 0.8 mg/L (≈ 0.0682 to 0.546 µM)
Compound: COCC1OC(OC2OCC3OC4(OCC(O)C5OCOC54)OC3C2OC)C(OC)C(O)C1OC1OC(C)C(OC)C(OC2CC3(C)OC4(CC(O)C(OC5CC(OC6CC(C)(NO)C(OC)C(C)O6)C(OC(=O)c6c(C)c(Cl)c(O)c(Cl)c6OC)C(C)O5)C(C)O4)OC3C(C)O2)C1O (stereo not drawn) [Hydroxylaminoeverninomicin C, hydroxylaminoeverninomicin C]

Compound: COCC1OC(OC2OCC3OC4(OCC(O)(C(C)OC)C5OCOC54)OC3C2OC)C(OC)C(O)C1OC1OC(C)C(OC)C(OC2CC3(C)OC4(CC(O)C(OC5CC(OC6CC(C)(NO)C(OC)C(C)O6)C(OC(=O)c6c(C)c(Cl)c(O)c(Cl)c6OC)C(C)O5)C(C)O4)OC3C(C)O2)C1O (stereo not drawn) [Hydroxylaminoeverninomicin D N-methylglucamine salt]
- MIC [6]: 0.2 to 1.0 mg/L
- Peak serum levels in dogs [1]: 20 to 30 µg/mL
- LD50 in mice I.P. (mg/kg) [3]: 500
- LD50 in mice I.V. (mg/kg) [3]: 30
- LD50 in mice Oral (mg/kg) [3]: > 2000
- LD50 in mice S.C. (mg/kg) [3]: 500
- MIC [4]: 0.08 to 0.8 mg/L
- Peak serum levels in rats [5]: 30 to 40 µg/mL

Compound: COCC1OC(OC2OCC3OC4(OCC(O)(C(C)OC)C5OCOC54)OC3C2OC)C(OC)C(O)C1OC1OC(C)C(OC)C(OC2CC3(C)OC4(CC(O)C(OC5CC(OC6CC(C)(NO)C(OC)C(C)O6)C(OC(=O)c6c(C)c(Cl)c(O)c(Cl)c6OC)C(C)O5)C(C)O4)OC3C(C)O2)C1O (stereo not drawn) [Hydroxylaminoeverninomicin D sodium salt, hydroxylaminoeverninomicin D sodium salt]
- MIC ([6]; Neisseria meningitidis, read-out: MIC): 0.2 to 1 mg/L
- absorption compared with everninomicin D [7]: more rapidly absorbed
- excretion compared with everninomicin D [7]: more rapidly excreted than everninomicin D
- serum levels compared with everninomicin D [7]: higher serum levels
- Peak serum levels in dogs [1]: 20 to 30 µg/mL
- LD50 in mice I.P. (mg/kg) [3]: 500
- LD50 in mice I.V. (mg/kg) [3]: 30
- LD50 in mice Oral (mg/kg) [3]: > 2000
- LD50 in mice S.C. (mg/kg) [3]: 500
- MIC ([4]; sodium salt): 0.08 to 0.8 mg/L
- antibacterial activity compared with everninomicin D ([4]; sodium salt): antibacterial activity comparable to that of the everninomicin D precursor; also recorded: comparable antibacterial activity against gram-positive bacteria
- Peak serum levels in rats [5]: 30 to 40 µg/mL

Compound: COCC1OC(OC2OCC3OC4(OCC(O)(C(C)OC)C5OCOC54)OC3C2OC)C(OC)C(O)C1OC1OC(C)C(OC)C(OC2CC3(C)OC4(CC(O)C(OC5CC(OC6CC(C)(NO)C(OC)C(C)O6)C(OC(=O)c6c(C)c(Cl)c(O)c(Cl)c6OC)C(C)O5)C(C)O4)OC3C(C)O2)C1O (stereo not drawn) [Hydroxylaminoeverninomicin D, hydroxylaminoeverninomicin D]
- activity against certain gram-negative bacteria ([6]; certain gram-negative bacteria, in words): certain gram-negative bacteria are also susceptible
- absorption compared with everninomicin D [7]: more rapidly absorbed
- MIC [4]: 0.3 to 0.8 mg/L
- antibacterial activity compared with everninomicin D [4]: antibacterial activity comparable to that of everninomicin D; also recorded: comparable antibacterial activity against gram-positive bacteria

- MIC ([4]; sodium salt): 0.08 to 3 mg/L
Compound: COCC1OC(OC2OCC3OC4(OCC(O)(C(C)OC)C5OCOC54)OC3C2OC)C(OC)C(O)C1OC1OC(C)C(OC)C(OC2CC3(C)OC4(CC(O)C(OC5CC(OC6CC(C)(N=O)C(OC)C(C)O6)C(OC(=O)c6c(C)c(Cl)c(O)c(Cl)c6OC)C(C)O5)C(C)O4)OC3C(C)O2)C1O (stereo not drawn) [Nitrosoeverninomicin D sodium salt, nitrosoeverninomicin D sodium salt]

- Peak serum levels in dogs [1]: 6 µg/mL
- MIC ([4]; 24 h, read-out: MIC): 0.08 to 0.8 mg/L (≈ 0.0526 to 0.526 µM)
- Peak serum levels in rats [5]: 10 to 11 µg/mL
Compound: COCC1OC(OC2OCC3OC4(OCC(O)(C(C)OC)C5OCOC54)OC3C2OC)C(OC)C(O)C1OC1OC(C)C(OC)C(OC2CC3(C)OC4(CC(O)C(OC5CC(OC6CC(C)(N=O)C(OC)C(C)O6)C(OC(=O)c6c(C)c(Cl)c(O)c(Cl)c6OC)C(C)O5)C(C)O4)OC3C(C)O2)C1O (stereo not drawn) [Nitrosoeverninomicin D, nitrosoeverninomicin D]
- Bioassay [8]: 1460 µg/mL

- Peak serum levels in dogs [1]: 1 to 2 µg/mL
- Peak serum levels in rats ([5]; 25 mg/kg): 10 to 12 µg/mL and 9 µg/mL
Compound: COCC1OC(OC2OCC3OC4(OCC(O)(C(C)OC)C5OCOC54)OC3C2OC)C(OC)C(O)C1OC1OC(C)C(OC)C(OC2CC3(C)OC4(CC(O)C(OC5CC(OC6CC(C)([N+]([O-])=Cc7ccccc7)C(OC)C(C)O6)C(OC(=O)c6c(C)c(Cl)c(O)c(Cl)c6OC)C(C)O5)C(C)O4)OC3C(C)O2)C1O (stereo not drawn) [hydroxylaminoeverninomicin D benzyl nitrone N-methylglucamine salt]

Compound: COCC1OC(OC2OCC3OC4(OCC(O)(C(C)OC)C5OCOC54)OC3C2OC)C(OC)C(O)C1OC1OC(C)C(OC)C(OC2CC3(C)OC4(CC(O)C(OC5CC(OC6CC(C)([N+]([O-])=Cc7ccccc7)C(OC)C(C)O6)C(OC(=O)c6c(C)c(Cl)c(O)c(Cl)c6OC)C(C)O5)C(C)O4)OC3C(C)O2)C1O (stereo not drawn) [hydroxylaminoeverninomicin D benzyl nitrone]
- Bioassay [8]: 1309.0 µg/mL

Compound: COCC1OC(OC2OCC3OC4(OCC(O)(C(C)OC)C5OCOC54)OC3C2OC)C(OC)C(O)C1OC1OC(C)C(OC)C(OC2CC3(C)OC4(CC(O)C(OC5CC(OC6CC(C)([N+]([O-])=Cc7ccco7)C(OC)C(C)O6)C(OC(=O)c6c(C)c(Cl)c(O)c(Cl)c6OC)C(C)O5)C(C)O4)OC3C(C)O2)C1O (stereo not drawn) [hydroxylaminoeverninomicin D furfuryl nitrone]
- Bioassay [8]: 1063.4 µg/mL

Compound: CCCCCCC=[N+]([O-])C1(C)CC(OC2CC(OC3C(O)CC4(OC3C)OC3C(C)OC(OC5C(O)C(OC6C(COC)OC(OC7OCC8OC9(OCC(O)(C(C)OC)C%10OCOC%109)OC8C7OC)C(OC)C6O)OC(C)C5OC)CC3(C)O4)OC(C)C2OC(=O)c2c(C)c(Cl)c(O)c(Cl)c2OC)OC(C)C1OC (stereo not drawn) [hydroxylaminoeverninomicin D heptyl nitrone]
- Bioassay [8]: 892 µg/mL
